Here are results for three compounds from ChEMBL document CHEMBL3352482, “Discovery of potent N-(isoxazol-5-yl)amides as HSP90 inhibitors” (Eur J Med Chem, 2014).

SMILES strings stand for the structures. Calls of active or inactive are those of the source. The rule behind the calls is not given here.

The GI50 is the concentration that inhibits growth by half. In general, inhibition refers to the percentage by which the read-out fell short of the control. For orientation: T/C means the ratio of treated to control. As a reminder, the Cmax is the peak of the concentration-time curve. For orientation: Tmax means the time at which the peak concentration occurs. A word on the half-life: it is how long it takes for the measured level to halve. Low values mean fast loss, high ones slow loss. A word on the MRT: it is the average time that molecules of a dose stay in the body. One may read the AUC(0-t) as exposure summed from dosing to a finite time, without extrapolation to infinity. Low values mean low exposure, high ones high exposure. One may read the bioavailability as dose-corrected exposure relative to a reference, in per cent. A word on the IC50: it is the concentration that inhibits the measured activity by half. The low end stands for greater potency, the high end for weaker potency.

One data set relates to A549. Description: Growth inhibition of human A549 cells after 72 hrs by SRB assay. The class given is functional. Particulars: A549, 72 h. In general terms: In SRB staining, fixed cells bind dye roughly in proportion to their protein.
A short description of data set [1]: Intrinsic clearance in rat liver microsomes assessed per mg protein. It is filed as ADME. Particulars: read-out: CLH. Background: Liver microsomes are vesicles of endoplasmic reticulum, rich in cytochrome P450 enzymes.
A short description of data set [2]: Intrinsic clearance in human liver microsomes assessed per mg protein. The class given is ADME. Particulars: read-out: CLH.
The next data set addresses CYP3A4 (Homo sapiens, UniProt P08684). Description: (§1) Inhibition of CYP3A4 in human liver microsomes at 10 uM after 20 mins. Particulars: human liver microsomes.
For another data set, the target named is CYP2D6 (Homo sapiens, UniProt P10635). The data set is described as follows: Inhibition of CYP2D6 in human liver microsomes at 10 uM after 20 mins.
The next data set addresses CYP2C9 (Homo sapiens, UniProt P11712). The data set is described as follows: Inhibition of CYP2C9 in human liver microsomes at 10 uM after 20 mins.
The next data set concerns the target T1, CYP1A2 (Homo sapiens, UniProt P05177).
T1 sequence (P05177 whole entry): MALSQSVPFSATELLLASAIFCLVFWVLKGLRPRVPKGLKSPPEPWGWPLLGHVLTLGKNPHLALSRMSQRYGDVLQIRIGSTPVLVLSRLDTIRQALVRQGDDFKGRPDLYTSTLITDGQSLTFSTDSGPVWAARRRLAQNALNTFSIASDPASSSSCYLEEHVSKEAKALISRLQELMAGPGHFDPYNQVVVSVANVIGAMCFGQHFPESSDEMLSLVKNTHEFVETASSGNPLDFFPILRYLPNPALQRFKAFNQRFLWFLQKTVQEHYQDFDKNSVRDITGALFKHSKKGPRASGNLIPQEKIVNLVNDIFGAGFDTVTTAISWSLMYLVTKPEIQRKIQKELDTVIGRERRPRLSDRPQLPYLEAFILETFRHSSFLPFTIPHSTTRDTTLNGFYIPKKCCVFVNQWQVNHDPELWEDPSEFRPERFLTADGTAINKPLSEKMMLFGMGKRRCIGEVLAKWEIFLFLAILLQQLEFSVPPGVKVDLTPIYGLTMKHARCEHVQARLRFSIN
Description: Inhibition of CYP1A2 in human liver microsomes at 10 uM after 20 mins.

Data set [3] in a line: Antitumor activity against human U87MG cells xenografted in mouse assessed as tumor growth inhibition at 50 mg/kg, iv dosed 3 times per week for 17 consecutive days relative to control. It is filed as functional, U-87MG ATCC.
Data set [4] is described as follows: Growth inhibition of human HCC827 cells after 72 hrs by SRB assay. It is filed as functional. Conditions: HCC827, 72 h.
For another data set, the system named is NCI-H596. Description: Growth inhibition of human NCI-H596 cells after 72 hrs by SRB assay. Conditions: NCI-H596, 72 h. The class given is functional.
The next data set has as its system MDA-MB-231. The data set is described as follows: Growth inhibition of human MDA-MB-231 cells after 72 hrs by SRB assay. Conditions: MDA-MB-231, 72 h. The class given is functional.
A further data set has as its system MDA-MB-468. Description: Growth inhibition of human MDA-MB-468 cells after 72 hrs by SRB assay. It is filed as functional. Conditions: MDA-MB-468, 72 h.
For another data set, the system named is HCC1937. The data set is described as follows: Growth inhibition of human HCC1937 cells after 72 hrs by SRB assay. The class given is functional. Conditions: HCC1937, 72 h.
Another data set has as its system SW-620. Description: Growth inhibition of human SW620 cells after 72 hrs by SRB assay. It is filed as functional. Particulars: SW-620, 72 h.
The nature of data set [5]: Growth inhibition of human U87MG cells after 72 hrs by SRB assay. Particulars: U-87 MG. The class given is functional, U-87MG ATCC.
For the next data set, the system named is SW480. The data set is described as follows: Growth inhibition of human SW480 cells after 72 hrs by SRB assay. The class given is functional. Conditions: SW480, 72 h.
A short description of data set [6]: Growth inhibition of human HCT116 cells after 72 hrs by SRB assay. The class given is functional. Conditions: HCT-116, 72 h.
A short description of data set [7]: Growth inhibition of human SMMC7721 cells after 72 hrs by SRB assay. The class given is functional. Particulars: SMMC-7721, 72 h.
The test system of another data set is DU-145. Description: Growth inhibition of human DU145 cells after 72 hrs by SRB assay. It is filed as functional. Particulars: DU-145, 72 h.
Data set [8] can be described thus: Growth inhibition of human OVCAR8 cells after 72 hrs by SRB assay. It is filed as functional. Particulars: OVCAR-8, 72 h.
Data set [9] is described as follows: Growth inhibition of human 786-O cells after 72 hrs by SRB assay. It is filed as functional. Particulars: 786-0, 72 h.
In another data set the test system is HeLa. The data set is described as follows: Growth inhibition of human HeLa cells after 72 hrs by SRB assay. The class given is functional.
For another data set, the system named is SK-MEL-28. Description: Growth inhibition of human SK-MEL-28 cells after 72 hrs by SRB assay. It is filed as functional. Conditions: SK-MEL-28, 72 h.
A further data set addresses hERG (KCNH2) (Homo sapiens, UniProt Q12809). Description: Inhibition of human ERG at 1 uM.
In a further data set the target is Cytochrome P450 3A4 (Homo sapiens, UniProt P08684). The description is as §1. Conditions: microsomes, 20 min, 10 µM.
A short description of data set [10]: Cmax in mouse at 50 mg/kg, po. The class given is ADME, organism-based. More on the design: dose 50 mg/kg, route oral. Conditions: in vivo.
Data set [11] is described as follows: Tmax in mouse at 50 mg/kg, po. Particulars: in vivo. More on the design: dose 50 mg/kg, route oral. It is filed as ADME, organism-based.
The nature of data set [12]: Half life in mouse at 50 mg/kg, po. Conditions: in vivo. It is filed as ADME, organism-based. Further details: dose 50 mg/kg, route oral.
Data set [13] in a line: Mean residence time in mouse at 50 mg/kg, po. The class given is ADME, organism-based. More on the design: dose 50 mg/kg, route oral. Conditions: in vivo.
Data set [14] in a line: AUC (0 to t) in mouse at 50 mg/kg, po. It is filed as ADME, organism-based. Conditions: plasma. More on the design: dose 50 mg/kg, route oral.
Data set [15] is described as follows: Oral bioavailability in mouse at 50 mg/kg. It is filed as ADME, organism-based. Conditions: in vivo.
Data set [16] is described as follows: Half life in mouse at 10 mg/kg, iv. The class given is ADME, organism-based. Further details: dose 10 mg/kg, route intravenous. Particulars: in vivo.
Data set [17] can be described thus: Mean residence time in mouse at 10 mg/kg, iv. The class given is ADME, organism-based. More on the design: dose 10 mg/kg, route intravenous. Particulars: in vivo.
Data set [18] can be described thus: AUC (0 to t) in mouse at 10 mg/kg, iv. Further details: dose 10 mg/kg, route intravenous. Particulars: plasma. The class given is ADME, organism-based.
The target of data set [19] is T2, Heat shock protein HSP 90-alpha (Homo sapiens, UniProt P07900).
Description: Inhibition of HSP90alpha (unknown origin) after 16 hrs by FP enzymatic assay
The target of data set [20] is T2, Heat shock protein HSP 90-alpha. Conditions: U-87MG ATCC.
Description: Inhibition of HSP90alpha in human U87MG cells assessed as increase in HSP70 level at 50 to 200 nM after 24 hrs by western blotting
The target is the same in data set [21]. Conditions: U-87MG ATCC. The source holds these as a separate data set.
Description: Inhibition of HSP90alpha in human U87MG cells assessed as increase in HSP27 level at 50 to 200 nM after 24 hrs by western blotting
Data set [22] shares this target. Conditions: U-87MG ATCC. The source holds these as a separate data set.
Description: Inhibition of HSP90alpha in human U87MG cells assessed as decrease in c-Met level at 50 to 100 nM after 24 hrs by western blotting
For data set [23] the target is unchanged. Particulars: U-87MG ATCC. This is another data set of the same source.
Description: Inhibition of HSP90alpha in human U87MG cells assessed as decrease in p-Akt level at 50 to 100 nM after 24 hrs by western blotting
Data set [24] has the same target. Conditions: U-87MG ATCC. This is another data set of the same source.
Description: Inhibition of HSP90alpha in human U87MG cells assessed as decrease in p-Erk level at 50 to 100 nM after 24 hrs by western blotting
The nature of data set [25]: Antitumor activity against human U87MG cells xenografted in mouse assessed as tumor growth inhibition at 25 mg/kg, iv dosed 3 times per week for 17 consecutive days relative to control. The class given is functional, U-87MG ATCC. A general note: In xenograft studies the graft and the host belong to different species.
For the next data set, the system named is Mus musculus. Description: Toxicity in human U87MG cells xenografted mouse assessed as weight loss at 25 to 50 mg/kg, iv dosed 3 times per week for 17 consecutive days relative to control. The class given is organism-based, U-87MG ATCC. Further details: dose 25-50 mg/kg, route intravenous. Conditions: in vivo.

Sequence of CYP2C9 (P11712 whole entry): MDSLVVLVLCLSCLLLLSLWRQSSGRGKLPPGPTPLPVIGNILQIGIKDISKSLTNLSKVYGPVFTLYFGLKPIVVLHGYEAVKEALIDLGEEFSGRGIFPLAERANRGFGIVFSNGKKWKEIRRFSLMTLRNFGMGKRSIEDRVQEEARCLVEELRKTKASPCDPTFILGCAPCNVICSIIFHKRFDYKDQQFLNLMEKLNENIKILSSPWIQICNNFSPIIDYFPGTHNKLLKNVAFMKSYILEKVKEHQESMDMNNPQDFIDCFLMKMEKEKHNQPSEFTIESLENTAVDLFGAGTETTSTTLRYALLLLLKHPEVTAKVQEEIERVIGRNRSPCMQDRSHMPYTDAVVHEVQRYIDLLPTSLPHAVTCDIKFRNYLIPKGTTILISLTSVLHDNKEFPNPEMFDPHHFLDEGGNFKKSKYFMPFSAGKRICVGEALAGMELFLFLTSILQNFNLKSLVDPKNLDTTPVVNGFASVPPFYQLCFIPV
Sequence of CYP2D6 (P10635 whole entry): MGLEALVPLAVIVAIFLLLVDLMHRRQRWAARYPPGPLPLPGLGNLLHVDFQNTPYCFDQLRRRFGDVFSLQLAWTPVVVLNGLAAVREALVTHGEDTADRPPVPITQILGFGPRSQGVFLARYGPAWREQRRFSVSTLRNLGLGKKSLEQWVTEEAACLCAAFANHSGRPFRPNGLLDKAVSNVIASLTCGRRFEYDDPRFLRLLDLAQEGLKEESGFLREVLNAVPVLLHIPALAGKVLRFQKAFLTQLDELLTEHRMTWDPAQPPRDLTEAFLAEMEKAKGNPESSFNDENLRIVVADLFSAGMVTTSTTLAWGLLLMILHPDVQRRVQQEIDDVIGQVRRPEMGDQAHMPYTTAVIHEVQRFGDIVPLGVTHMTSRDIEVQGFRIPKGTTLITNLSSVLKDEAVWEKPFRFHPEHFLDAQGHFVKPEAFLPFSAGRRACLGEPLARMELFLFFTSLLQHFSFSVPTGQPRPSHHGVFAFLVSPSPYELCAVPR
Sequence of hERG (KCNH2) (Q12809 whole entry): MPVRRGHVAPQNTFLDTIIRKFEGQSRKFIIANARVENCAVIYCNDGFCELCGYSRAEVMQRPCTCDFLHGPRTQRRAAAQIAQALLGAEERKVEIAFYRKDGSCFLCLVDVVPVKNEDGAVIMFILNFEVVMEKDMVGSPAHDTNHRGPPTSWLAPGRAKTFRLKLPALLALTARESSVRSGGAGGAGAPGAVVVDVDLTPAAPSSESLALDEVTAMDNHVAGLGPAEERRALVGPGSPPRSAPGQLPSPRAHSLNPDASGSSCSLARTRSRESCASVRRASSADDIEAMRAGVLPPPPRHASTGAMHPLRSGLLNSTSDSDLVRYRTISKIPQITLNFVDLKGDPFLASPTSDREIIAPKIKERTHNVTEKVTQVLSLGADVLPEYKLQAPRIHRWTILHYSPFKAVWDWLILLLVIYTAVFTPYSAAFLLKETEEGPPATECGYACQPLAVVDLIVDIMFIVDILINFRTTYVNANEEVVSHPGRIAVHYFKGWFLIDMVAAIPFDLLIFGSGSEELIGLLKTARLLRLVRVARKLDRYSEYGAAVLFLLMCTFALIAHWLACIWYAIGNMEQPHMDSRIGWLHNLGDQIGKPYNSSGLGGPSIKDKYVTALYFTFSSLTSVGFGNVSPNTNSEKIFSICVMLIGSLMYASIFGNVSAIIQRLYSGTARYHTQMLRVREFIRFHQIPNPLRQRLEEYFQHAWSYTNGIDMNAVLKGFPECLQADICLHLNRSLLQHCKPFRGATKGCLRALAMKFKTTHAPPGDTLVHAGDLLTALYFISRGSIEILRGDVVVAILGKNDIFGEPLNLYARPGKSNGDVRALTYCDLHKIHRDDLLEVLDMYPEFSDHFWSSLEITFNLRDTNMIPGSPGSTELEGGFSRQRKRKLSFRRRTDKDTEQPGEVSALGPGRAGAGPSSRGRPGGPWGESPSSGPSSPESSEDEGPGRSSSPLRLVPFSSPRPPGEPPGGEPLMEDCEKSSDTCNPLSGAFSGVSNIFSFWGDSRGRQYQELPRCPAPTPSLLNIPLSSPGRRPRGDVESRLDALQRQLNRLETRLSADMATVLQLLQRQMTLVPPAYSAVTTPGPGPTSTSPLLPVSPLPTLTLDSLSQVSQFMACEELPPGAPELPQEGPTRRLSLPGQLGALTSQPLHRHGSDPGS
Sequence of Cytochrome P450 3A4 (P08684 whole entry): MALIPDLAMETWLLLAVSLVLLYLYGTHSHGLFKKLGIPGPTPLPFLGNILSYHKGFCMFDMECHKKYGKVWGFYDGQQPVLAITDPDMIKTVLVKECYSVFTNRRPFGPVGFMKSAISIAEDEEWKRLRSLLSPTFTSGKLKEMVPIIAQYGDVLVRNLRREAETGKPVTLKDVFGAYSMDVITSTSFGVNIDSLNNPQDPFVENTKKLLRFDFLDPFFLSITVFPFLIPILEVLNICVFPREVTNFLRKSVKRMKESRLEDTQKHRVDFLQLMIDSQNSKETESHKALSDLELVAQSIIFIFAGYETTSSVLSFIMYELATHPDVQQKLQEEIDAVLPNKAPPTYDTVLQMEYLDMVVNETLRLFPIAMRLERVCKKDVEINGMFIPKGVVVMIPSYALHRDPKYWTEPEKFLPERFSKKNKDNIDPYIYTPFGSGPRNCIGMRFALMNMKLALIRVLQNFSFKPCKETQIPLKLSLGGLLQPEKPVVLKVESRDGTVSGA
Sequence of CYP3A4 (P08684 whole entry): as above

`CCNC(=O)c1noc(-c2cc(C(C)C)c(O)cc2O)c1-c1ccc(CN2CCOCC2)cc1` [LUMINESPIB] had a GI50 in the data set on A549 of 26 nM. In addition, the microsomal CLint in data set [1] stood at 180 µL/min/mg; in data set [2], 92 µL/min/mg. Moreover, the inhibition at 20 min, 10 µM against CYP3A4 amounted to 12%; at CYP2D6 it was 30%; against CYP2C9 it was 46%; against CYP1A2 it was 23%. The T/C in data set [3] was 34.06%.

Turning to `CC(C)c1cc(-c2noc(NC(=O)C3CC3)c2-c2ccc(CN3CCOCC3)cc2)c(O)cc1O`, the GI50 turned out to be 41 nM in the data set on A549; 15 nM in data set [4]; 166 nM in the data set with NCI-H596; 54 nM with MDA-MB-231; 42 nM in the data set on MDA-MB-468; 114 nM with HCC1937. Moreover, the GI50 in the data set on SW-620 amounted to 46 nM; in data set [5], 115 nM; with SW480, 21 nM; in data set [6], 35 nM; in data set [7], 46 nM; in the data set on DU-145, 19 nM. For the same compound, the GI50 in data set [8] came out at 19 nM; in data set [9] it was 24 nM; in the data set with HeLa, 46 nM; in the data set on SK-MEL-28 it was 90 nM. This compound also returned an inhibition at 1 µM at hERG (KCNH2) of 10.5%. Also, the results for the microsomal CLint in data set [1] and in data set [2] were 108 µL/min/mg and 112 µL/min/mg, respectively. For the same compound, the INH entry on Cytochrome P450 3A4 is listed as “Not Active”. Further, the inhibition at 20 min, 10 µM on CYP2D6 is 79%; at CYP2C9, 66%; against CYP1A2, 22%. In [10], the Cmax came to 438 ng/mL. Also, in [11], the time of peak concentration (Tmax) was 4.98 min. Further, the half-life in data set [12] is 1.06 h; in data set [16], 1.62 h. Also, the MRT in [13] was determined as 1.54 h; in data set [17], 1.86 h. Besides, the results for the AUC(0-t) in [14] and in data set [18] were 496 ng·h/mL and 615 ng·h/mL, respectively. Besides, the bioavailability in data set [15] is 16.1%. In addition, the IC50 in data set [19] was determined as 27 nM. Besides, the inhibition result in data set [20], in data set [21], in data set [22], in data set [23] and in [24] was “Active” in each case.

As for `CC(C)c1cc(-c2noc(NC(=O)C3CC3)c2-c2ccc(CN3CCC(N4CCOCC4)CC3)cc2)c(O)cc1O.Cl`, the T/C came to 48.28% in data set [25] and 18.35% in [3]. Also, in the data set on Mus musculus, the Activity result was “Non-toxic”.
